According to patent US12545659B2, “IRAK degraders and uses thereof” (Kymera Therapeutics, Inc., priority 2019, dated 2026):

What follows are compounds tested against T1, IRAK4 (Homo sapiens, UniProt Q9NWZ3) (assay: IRAK4 MSD Degradation in OCI-LY10). Details: OCI-LY10 cells, 4 hrs incubation, read-out: IRAK4 degradation in OCI-LY10 at 4 hrs: DC50.
T1 construct: endogenous in cells; host or cells: OCI-LY10
T1 sequence (Q9NWZ3 1-460): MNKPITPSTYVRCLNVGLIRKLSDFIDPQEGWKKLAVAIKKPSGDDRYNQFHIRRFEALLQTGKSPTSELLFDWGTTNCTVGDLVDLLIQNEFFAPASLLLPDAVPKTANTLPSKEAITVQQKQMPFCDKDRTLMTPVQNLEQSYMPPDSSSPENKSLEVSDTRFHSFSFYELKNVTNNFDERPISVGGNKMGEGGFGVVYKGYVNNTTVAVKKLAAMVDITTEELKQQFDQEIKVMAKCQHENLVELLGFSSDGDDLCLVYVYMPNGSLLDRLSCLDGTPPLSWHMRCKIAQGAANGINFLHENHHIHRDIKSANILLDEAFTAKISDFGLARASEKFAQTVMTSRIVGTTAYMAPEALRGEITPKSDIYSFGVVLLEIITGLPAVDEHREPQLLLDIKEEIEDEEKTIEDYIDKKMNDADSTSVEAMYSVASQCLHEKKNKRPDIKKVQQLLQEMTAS
Type: cell-based
Outline: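 IRAK4 remaining in lysates was read by Meso Scale electrochemiluminescence sandwich (2H9 capture, Y279 plus SULFO-TAG detection). Cells were exposed 4 to 24 h at 37 °C to eight 3-fold dilutions from 1 to 10 μM final top; three-parameter logistic fit gave DC50.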
`Cn1c(=O)n(C2CCC(=O)NC2=O)c2cccc(OCC3CCN(C[C@H]4CC[C@H](n5cc6cc(NC(=O)c7cccc(C(F)(F)F)n7)c(C(C)(C)O)cc6n5)CC4)CC3)c21` (stereo partly drawn) [I-132] was tested, and the DC50 was less than 50 nM.
In the case of `COc1cc2nn([C@H]3CC[C@H](CN4[C@@H]5CC[C@H]4CN(CCc4cccc6c4n(C)c(=O)n6C4CCC(=O)NC4=O)C5)CC3)cc2cc1NC(=O)c1cccc(C(F)(F)F)n1` (stereo partly drawn) [I-133], the DC50 is reported as less than 50 nM.
`COc1cc2nn([C@H]3CC[C@H](CN(C)CC#Cc4cccc5c4n(C)c(=O)n5C4CCC(=O)NC4=O)CC3)cc2cc1NC(=O)c1cccc(C(F)(F)F)n1` (stereo partly drawn) [I-134] was tested, and the DC50 was 50 to 100 nM.
Compound `Cn1c(=O)n(C2CCC(=O)NC2=O)c2cccc(CCCC3CCN(C[C@H]4CC[C@H](n5cc6cc(NC(=O)c7cccc(C(F)(F)F)n7)c(N7CCOCC7)cc6n5)CC4)CC3)c21` (stereo partly drawn) [I-135] has a DC50 of 50 to 100 nM.
With `COc1cc2nn([C@H]3CC[C@H](CN4CCC(CCNc5cccc6c5n(C)c(=O)n6C5CCC(=O)NC5=O)CC4)CC3)cc2cc1NC(=O)c1ccc(F)c(C)n1` (stereo partly drawn) [I-144] the DC50 was less than 50 nM.
With `COc1cc2nn([C@H]3CC[C@H](CN4CCC(CCCc5ccc6c(c5)n(C)c(=O)n6C5CCC(=O)NC5=O)CC4)CC3)cc2cc1NC(=O)c1cccc(C(F)(F)F)n1` (stereo partly drawn) [I-145] the DC50 was 50 to 100 nM.
Work on `Cn1c(=O)n(C2CCC(=O)NC2=O)c2cccc(CCN3CCN(C[C@H]4CC[C@H](n5cc6cc(NC(=O)c7cccc(C(F)(F)F)n7)c(C(C)(C)O)cc6n5)CC4)CC3)c21` (stereo partly drawn) [I-146] yielded a DC50 of less than 50 nM.
In the case of `Cn1c(=O)n(C2CCC(=O)NC2=O)c2cccc(NC[C@H]3CC[C@H](n4cc5cc(NC(=O)c6cccc(C(F)(F)F)n6)c(C(C)(C)O)cc5n4)CC3)c21` (stereo partly drawn) [I-147, N-[2-[4-[[[1-(2,6-dioxo-3-piperidyl)-3-methyl-2-oxo-benzimidazol-4-yl]amino]methyl]cyclohexyl]-6-(1-hydroxy-1-methyl-ethyl)indazol-5-yl]-6-(trifluoromethyl)pyridine-2-carboxamide], the DC50 is reported as 500 to 1000 nM.
`CN(CC#Cc1ccc2c(c1)n(C)c(=O)n2C1CCC(=O)NC1=O)C[C@H]1CC[C@H](n2cc3cc(NC(=O)c4cccc(C(F)(F)F)n4)c(C(F)F)cc3n2)CC1` (stereo partly drawn) [I-148] gave a DC50 of 500 to 1000 nM.
Work on `Cn1c(=O)n(C2CCC(=O)NC2=O)c2ccc(N3CCN(C[C@H]4CC[C@H](n5cc6cc(NC(=O)c7cccc(C(F)(F)F)n7)c(C(F)F)cc6n5)CC4)CC3)cc21` (stereo partly drawn) [I-149] yielded a DC50 of less than 50 nM.
`COc1cc2nn([C@H]3CC[C@H](CNc4cccc5c4n(C)c(=O)n5C4CCC(=O)NC4=O)CC3)cc2cc1NC(=O)c1cccc(C(F)(F)F)n1` (stereo partly drawn) [I-150] showed a DC50 of 500 to 1000 nM.
In the case of `Cn1c(=O)n(C2CCC(=O)NC2=O)c2cccc(C[C@H]3C[C@]4(CC[C@@H](N(C)C[C@H]5CC[C@H](n6cc7cc(NC(=O)c8cccc(C(F)(F)F)n8)c(C(F)F)cc7n6)CC5)CC4)C3)c21` (stereo partly drawn) [I-151], the DC50 is reported as 50 to 100 nM.
`COc1cc2nn([C@H]3CC[C@H](CN(C)[C@H]4CC[C@@]5(CC4)C[C@@H](Cc4cccc6c4n(C)c(=O)n6C4CCC(=O)NC4=O)C5)CC3)cc2cc1NC(=O)c1cccc(C(F)(F)F)n1` (stereo partly drawn) [I-152] showed a DC50 of 50 to 100 nM.
In the case of `Cn1c(=O)n(C2CCC(=O)NC2=O)c2cccc(NC3CC4(CCN(C[C@H]5CC[C@H](n6cc7cc(NC(=O)c8cccc(C(F)(F)F)n8)c(C(C)(C)O)cc7n6)CC5)CC4)C3)c21` (stereo partly drawn) [I-153], the DC50 is reported as less than 50 nM.
`Cn1c(=O)n(C2CCC(=O)NC2=O)c2cccc(CCCC3CCN(C[C@H]4CC[C@H](n5cc6cc(NC(=O)c7cccc(C(F)(F)F)n7)c(N7C[C@@H]8C[C@H]7CO8)cc6n5)CC4)CC3)c21` (stereo partly drawn) [I-154] showed a DC50 of 50 to 100 nM.
With `Cn1c(=O)n(C2CCC(=O)NC2=O)c2cccc(C[C@H]3C[C@@]4(CC[C@@H](N(C)C[C@H]5CC[C@H](n6cc7cc(NC(=O)c8cccc(C(F)(F)F)n8)c(C(F)F)cc7n6)CC5)CC4)C3)c21` (stereo partly drawn) [I-155] the DC50 was less than 50 nM.
Work on `COc1cc2nn([C@H]3CC[C@H](CN4CCN(c5ccc6c(c5)n(C)c(=O)n6C5CCC(=O)NC5=O)CC4)CC3)cc2cc1NC(=O)c1cccc(C(C)(C)F)n1` (stereo partly drawn) [I-156] yielded a DC50 of 50 to 100 nM.
With `Cn1c(=O)n(C2CCC(=O)NC2=O)c2ccc(N3CCN(C[C@H]4CC[C@H](n5cc6cc(NC(=O)c7cccc(C(C)(C)F)n7)c(C(F)F)cc6n5)CC4)CC3)cc21` (stereo partly drawn) [I-157] the DC50 was 50 to 100 nM.
`COc1cc2nn([C@H]3CC[C@H](CN4CCC(CCCc5cccc6c5n(C)c(=O)n6C5CCC(=O)NC5=O)CC4)CC3)cc2cc1NC(=O)c1cnn2cccnc12` (stereo partly drawn) [I-158] showed a DC50 of less than 50 nM.
Work on `COc1cc2nn([C@H]3CC[C@H](CN(C)[C@H]4CC[C@]5(CC4)C[C@@H](Cc4cccc6c4n(C)c(=O)n6C4CCC(=O)NC4=O)C5)CC3)cc2cc1NC(=O)c1cccc(C(F)(F)F)n1` (stereo partly drawn) [I-160] yielded a DC50 of 50 to 100 nM.
Compound `COc1cc2nn([C@H]3CC[C@H](CN4CCC5(CC4)CC(Nc4cccc6c4n(C)c(=O)n6C4CCC(=O)NC4=O)C5)CC3)cc2cc1NC(=O)c1cccc(C(F)(F)F)n1` (stereo partly drawn) [I-162] has a DC50 of less than 50 nM.
Work on `COc1cc2nn([C@H]3CC[C@H](CN4CCC5(CC4)CC(CNc4cccc6c4n(C)c(=O)n6C4CCC(=O)NC4=O)C5)CC3)cc2cc1NC(=O)c1cccc(C(F)(F)F)n1` (stereo partly drawn) [I-163] yielded a DC50 of 50 to 100 nM.
Compound `Cn1c(=O)n(C2CCC(=O)NC2=O)c2cccc(NCC3CC4(CCN(C[C@H]5CC[C@H](n6cc7cc(NC(=O)c8cccc(C(F)(F)F)n8)c(C(C)(C)O)cc7n6)CC5)CC4)C3)c21` (stereo partly drawn) [I-166] has a DC50 of less than 50 nM.
For `COc1cc2nn([C@H]3CC[C@H](CN4CCN(c5cccc6c5n(C)c(=O)n6C5CCC(=O)NC5=O)CC4)CC3)cc2cc1NC(=O)c1cccc(C(C)(C)F)n1` (stereo partly drawn) [I-167], the DC50 was 50 to 100 nM.
`CN(C[C@H]1CC[C@H](n2cc3cc(NC(=O)c4cccc(C(F)(F)F)n4)c(C(F)F)cc3n2)CC1)C1CCN(c2cccc3c2n(C)c(=O)n3C2CCC(=O)NC2=O)CC1` (stereo partly drawn) [I-168] was tested, and the DC50 was less than 50 nM.
Compound `Cn1c(=O)n(C2CCC(=O)NC2=O)c2cccc(N3CCN(C[C@H]4CC[C@H](n5cc6cc(NC(=O)c7cccc(C(F)(F)F)n7)c(OC(F)(F)F)cc6n5)CC4)CC3)c21` (stereo partly drawn) [I-169] has a DC50 of 50 to 100 nM.
`COc1cc2nn([C@H]3CC[C@H](CN4CCN(c5cccc6c5n(C)c(=O)n6C5CCC(=O)NC5=O)CC4)CC3)cc2cc1NC(=O)c1cccc(C(F)(F)F)n1` (stereo partly drawn) [I-171] gave a DC50 of less than 50 nM.
`Cn1c(=O)n(C2CCC(=O)NC2=O)c2cccc(N3CCN(C[C@H]4CC[C@H](n5cc6cc(NC(=O)c7cccc(C(F)(F)F)n7)c(C(C)(C)O)cc6n5)CC4)CC3)c21` (stereo partly drawn) [I-172] was tested, and the DC50 was less than 50 nM.

Same assay, conditions: OCI-LY10 cells, 24 hrs incubation, read-out: IRAK4 degradation in OCI-LY10 at 24 hrs: DC50
Work on `COc1cc2nn([C@H]3CC[C@H](CN4CCC5(CC4)CC(CNc4cccc6c4C(=O)N([C@H]4CCC(=O)NC4=O)C6=O)C5)CC3)cc2cc1NC(=O)c1cccc(C(F)(F)F)n1` [I-131, N-[2-[4-[[2-[[[2-[(3S)-2,6-dioxo-3-piperidyl]-1,3-dioxo-isoindolin-4-yl]amino]methyl]-7-azaspiro[3.5]nonan-7-yl]methyl]cyclohexyl]-6-methoxy-indazol-5-yl]-6-(trifluoromethyl)pyridine-2-carboxamide] yielded a DC50 of 50 to 100 nM.
With `COc1cc2nn([C@H]3CC[C@H](CN4CCC5(CC4)CC(CCNc4cccc6c4C(=O)N(C4CCC(=O)NC4=O)C6=O)C5)CC3)c(C)c2cc1NC(=O)c1cccc(C(F)(F)F)n1` (stereo partly drawn) [I-136] the DC50 was 50 to 100 nM.
`COc1cc2nc([C@H]3CC[C@H](CN4CCC5(CC4)CC(CCNc4cccc6c4C(=O)N(C4CCC(=O)NC4=O)C6=O)C5)CC3)oc2cc1NC(=O)c1cccc(C(F)(F)F)n1` (stereo partly drawn) [I-137] showed a DC50 of 100 to 500 nM.
Compound `CC(C)(O)COc1cc2nn([C@H]3CC[C@H](CN4CCC5(CC4)CC(CNc4cccc6c4C(=O)N(C4CCC(=O)NC4=O)C6=O)C5)CC3)cc2cc1NC(=O)c1cccc(C(F)(F)F)n1` (stereo partly drawn) [I-138] has a DC50 of 50 to 100 nM.
In the case of `COc1cc2nn([C@H]3CC[C@H](CN4CCC5(CC4)CC(CCNc4cccc6c4C(=O)N(C4CCC(=O)NC4=O)C6=O)C5)CC3)cc2cc1NC(=O)c1cnn2cccnc12` (stereo partly drawn) [I-139], the DC50 is reported as less than 50 nM.
Work on `COc1cc2nn([C@H]3CC[C@H](CN4CCC(CO[C@H]5C[C@H](Nc6cccc7c6C(=O)N(C6CCC(=O)NC6=O)C7=O)C5)CC4)CC3)cc2cc1NC(=O)c1cccc(C(C)(C)F)n1` (stereo partly drawn) [I-140] yielded a DC50 of 50 to 100 nM.
`O=C1CCC(N2C(=O)c3cccc(NCCC4CC5(CCN(C[C@H]6CC[C@H](n7cc8cc(NC(=O)c9cccc(C(F)(F)F)n9)c(OC(F)(F)F)cc8n7)CC6)CC5)C4)c3C2=O)C(=O)N1` (stereo partly drawn) [I-141] was tested, and the DC50 was 50 to 100 nM.
`COc1cc2nn([C@H]3CC[C@H](CN4CCC5(CC4)CC(CCNc4cccc6c4C(=O)N(C4CCC(=O)NC4=O)C6=O)C5)CC3)cc2cc1NC(=O)[C@H]1CCCCO1` (stereo partly drawn) [I-142] gave a DC50 of 500 to 1000 nM.
With `COc1cc2nn([C@H]3CC[C@H](CN4CCC5(CC4)CC(CCNc4cccc6c4C(=O)N(C4CCC(=O)NC4=O)C6=O)C5)CC3)cc2cc1NC(=O)[C@@H]1CCCCN1` (stereo partly drawn) [I-143] the DC50 was 500 to 1000 nM.
For `O=C1CCC(N2C(=O)c3cccc(NCCC4CC5(CCN(C[C@H]6CC[C@H](n7cc8cc(NC(=O)c9cccc(C(F)(F)F)n9)c(OC9CC9)cc8n7)CC6)CC5)C4)c3C2=O)C(=O)N1` (stereo partly drawn) [I-159], the DC50 was less than 50 nM.
`CN(CCCO[C@H]1C[C@H](Nc2cccc3c2C(=O)N(C2CCC(=O)NC2=O)C3=O)C1)C[C@@]1(C)Cc2cc(NC(=O)c3cnn4cccnc34)c(N3CCOCC3)cc2O1` (stereo partly drawn) [I-161, N-[(2R)-2-[[3-[3-[[2-(2,6-dioxo-3-piperidyl)-1,3-dioxo-isoindolin-4-yl]amino]cyclobutoxy]propyl-methyl-amino]methyl]-2-methyl-6-morpholino-3H-benzofuran-5-yl]pyrazolo[1,5-a]pyrimidine-3-carboxamide] gave a DC50 of 500 to 1000 nM.
